Values of other authors in patent publication US20060122261A1, “[METHOD OF PREPARING LABDANE DITERPENE COMPOSITION, PREFERABLY ISOFORSKOLIN AND DEACETYLFORSKOLIN FROM FORSKOLIN EXTRACT AND THEIR USE FOR PROMOTING LEAN BODY MASS AND OTHER APPLICATIONS]” (priority 2003, published 2006).

Key:
adenylate cyclase = conditions: Rupp, de Souza, Dohadwalla 1985
[1] = Rupp, de Souza, Dohadwalla 1985

Row | Structure (SMILES) | Effectiveness as adenylate cyclase activator relative to Forskolin (adenylate cyclase) | Effectiveness as hypotensive, anti-hypertensive, positive inotropic relative to Forskolin [1]
1 | C=C[C@@]1(C)CC(=O)[C@@]2(O)[C@](C)(O1)[C@@H](O)[C@@H](OC(C)=O)C1C(C)(C)CC[C@H](O)[C@@]12C (stereo partly shown) [6-acetyl-7-deacetylforskolin] | equally effective as Forskolin | equally effective as Forskolin
2 | C=C[C@@]1(C)CC(=O)[C@]2(O)[C@@]3(C)[C@@H](O)CCC(C)(C)[C@@H]3[C@H](O)[C@H](O)[C@@]2(C)O1 [7-deacetylforskolin] | equally effective as Forskolin | equally effective as Forskolin
